Assay results published in article PMC6133997, “Glutamic acid is a carrier for hydrazine during the biosyntheses of fosfazinomycin and kinamycin” (Nature Communications, 2018).

How the values were obtained:
FzmA = details: 21 µM enzyme, 5 mM substrate, 5 mM arginine, 6 mM MgCl2, 6 mM ATP, 50 mM NaH2PO4 pH 7.7, 21 h; hydrolysis to glutamic acid
KinL = target: T1, KinL (Streptomyces murayamaensis, UniProt A0A385LSP3); assay: LC-HRMS of culture supernatant of E. coli expressing KinL; format: cell-based; details: 1 mM acetylhydrazine, 1 mM glutamic acid, 15 °C overnight; empty-vector control
T1 construct: pET28a in live E. coli BL21(DE3), not purified
T1 sequence (A0A385LSP3 1-500): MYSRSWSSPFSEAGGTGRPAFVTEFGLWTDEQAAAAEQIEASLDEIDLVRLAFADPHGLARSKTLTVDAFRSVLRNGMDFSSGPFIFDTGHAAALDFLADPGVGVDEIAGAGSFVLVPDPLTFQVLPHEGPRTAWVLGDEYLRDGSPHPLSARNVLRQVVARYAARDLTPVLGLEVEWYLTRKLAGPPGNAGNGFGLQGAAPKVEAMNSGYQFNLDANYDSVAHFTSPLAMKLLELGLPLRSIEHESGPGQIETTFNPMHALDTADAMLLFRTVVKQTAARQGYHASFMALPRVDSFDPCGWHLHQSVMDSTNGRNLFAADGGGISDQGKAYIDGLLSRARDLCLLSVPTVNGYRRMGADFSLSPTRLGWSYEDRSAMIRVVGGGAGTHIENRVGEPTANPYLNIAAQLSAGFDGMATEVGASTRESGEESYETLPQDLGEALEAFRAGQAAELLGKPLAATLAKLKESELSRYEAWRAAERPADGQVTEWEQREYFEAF

Chain of FzmA (U5YQM4 entry or part of it): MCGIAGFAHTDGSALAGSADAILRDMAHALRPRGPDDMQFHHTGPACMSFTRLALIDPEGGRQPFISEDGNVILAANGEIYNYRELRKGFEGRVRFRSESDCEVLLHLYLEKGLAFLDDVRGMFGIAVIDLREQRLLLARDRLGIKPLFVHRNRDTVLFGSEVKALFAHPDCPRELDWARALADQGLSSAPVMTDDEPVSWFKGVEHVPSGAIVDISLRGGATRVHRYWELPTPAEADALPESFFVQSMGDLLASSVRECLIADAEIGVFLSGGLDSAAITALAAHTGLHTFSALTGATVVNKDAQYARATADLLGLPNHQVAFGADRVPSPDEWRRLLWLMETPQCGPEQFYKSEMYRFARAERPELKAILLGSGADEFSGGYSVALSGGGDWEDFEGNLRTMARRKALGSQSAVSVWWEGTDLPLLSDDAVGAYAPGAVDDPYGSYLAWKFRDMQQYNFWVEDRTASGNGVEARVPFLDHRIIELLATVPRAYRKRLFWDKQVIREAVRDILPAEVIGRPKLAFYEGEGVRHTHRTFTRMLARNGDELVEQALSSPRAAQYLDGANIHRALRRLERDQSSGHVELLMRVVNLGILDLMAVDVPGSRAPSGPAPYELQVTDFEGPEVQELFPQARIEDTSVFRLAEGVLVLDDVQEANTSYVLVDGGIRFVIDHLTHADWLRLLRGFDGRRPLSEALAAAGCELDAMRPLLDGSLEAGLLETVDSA

SMILES	LC-MS after Fmoc-Cl derivatization (FzmA)	LC-HRMS of culture supernatant of E. coli expressing KinL (KinL)
NNC(=O)CC[C@H](N)C(=O)O [compound 6, glutamylhydrazine]	FzmA clearly has the ability to liberate hydrazine from glutamylhydrazine	
CC(=O)NN [acetylhydrazine]		observed in culture supernatants only when KinL was expressed and acetylhydrazine was present
